Laboratory results reported in paper PMC2700083, “A covalent peptide inhibitor of RGS4 identified in a focused one-bead, one compound library screen” (BMC Pharmacology, 2009).
≈ marks a conversion by molar mass, not a printed value. Where “and” joins values, the source holds several entries; their conditions need not be identical. Identical values can stand only once. Like-named read-outs stand apart in the source and are kept apart here. Where a SMILES comes first, the peptide text is derived from it. Bridges are numbered along the chain shown (N, C = ends).

Legend:
RGS4 C71A = target: T1, RGS4 C71A (Rattus norvegicus, UniProt P49799, C71A); test: FCPIA, RGS4 cysteine mutant C71A; type: binding; details: read-out: 5nd logIC50 (converted)
T1 construct: made in house
T1 sequence (P49799 52-205 C71A limits assumed): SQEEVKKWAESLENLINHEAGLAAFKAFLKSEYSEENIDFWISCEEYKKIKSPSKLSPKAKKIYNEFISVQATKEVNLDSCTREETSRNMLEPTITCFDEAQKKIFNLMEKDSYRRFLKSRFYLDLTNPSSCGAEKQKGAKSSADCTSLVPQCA
Experimental: (§1) Figure 5 Dose curves of 5nd on various RGS4 cysteine mutants. Various concentrations of 5nd were tested for disruption of the RGS4-Gαo interaction for C95A (5 nM), or […], C71A (5nM) or C148A (5nM) (B), A95C in the -7C (5nM), or A132C in the -7C (5nM) (C), A71C in the -7C (5nM), or A148C in the -7C (5nM) (D) or the mutant with no cysteines in the domain (20 nM) or the C-terminus (20 nM) (E) in the FCPIA (mean ± S.E.M., n ≥ 3).
Proteins were expressed, purified and labeled as described previously. The mutagenesis was done using the "QuickChange Multi Site-Directed Mutagenesis Kit" from Stratagene according to the manufacturer's protocol. The construct of RGS4 used in these studies is a maltose binding protein (MBP-) fusion protein of the RGS4 sequence from which the amphipathic N-terminal helix has been removed (i.e. MBP-RGS4Δ51N). For simplicity in the text, this will be referred to as RGS4. All other RGS proteins were human sequences and were used as Mpb fusions: RGS7 RGS domain (aa: 305–453), RGS8 full length, RGS16 full length, and RGS19ΔC11 (amino acids 1–209). To cleave RGS4Δ51N from the MBP-His6 construct for MS analysis, MBP-His6-RGS4Δ51N was treated with 15% MBP-His6-TEV protease S219V [11] for 22 hours at 4°C and purified over a Ni-NTA column.
FCPIA was performed as previously published.

[1] = Solubility in buffer by HPLC; type: physicochemical
Experimental: Soluble peptides were synthesized on Rink resin, cleaved and cyclized as described previously. Peptide purity (at least 95%) and solubility were verified by high-performance liquid chromatography and correct mass was verified by MS analysis. ALogP calculations are from. Peptides were prepared as 5 mM stocks in DMSO.

RGS4 A132C, -7C = target: T2, RGS4 A132C, -7C (Rattus norvegicus, UniProt P49799, C148A/C183A/C197A/C204A/C71A/C95A); test: FCPIA, RGS4 A132C in the -7C; type: binding; details: read-out: 5nd logIC50 (converted)
T2 construct: made in house
Experimental: as §1
The previous experiments tested which cysteines are necessary for inhibition by 5nd. In an alternative approach, we added cysteines back to the -7C mutant to determine which might be sufficient for 5nd activity. […] Furthermore, Cys132 is involved in the actions but this is clearly not sufficient to explain them. Thus it is concluded that 5nd is at least partially non-selective in its cysteine modification.
Proteins were expressed, purified and labeled as described previously. The mutagenesis was done using the "QuickChange Multi Site-Directed Mutagenesis Kit" from Stratagene according to the manufacturer's protocol. The construct of RGS4 used in these studies is a maltose binding protein (MBP-) fusion protein of the RGS4 sequence from which the amphipathic N-terminal helix has been removed (i.e. MBP-RGS4Δ51N). For simplicity in the text, this will be referred to as RGS4. […]

RGS19 = target: T3, RGS19 (Homo sapiens, UniProt P49795); test: FCPIA, Gαo binding to RGS19; details: Figure 2
T3 construct: RGS19ΔC11 (amino acids 1–209); made in house
T3 sequence (P49795 1-209): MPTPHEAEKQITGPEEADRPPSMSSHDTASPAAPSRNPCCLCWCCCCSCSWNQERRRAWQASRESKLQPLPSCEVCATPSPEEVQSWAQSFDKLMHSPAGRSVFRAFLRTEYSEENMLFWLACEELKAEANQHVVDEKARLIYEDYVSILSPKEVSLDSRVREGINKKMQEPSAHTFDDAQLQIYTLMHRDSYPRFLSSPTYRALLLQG
Experimental: (§2) We recently described a bead-based screen in which 2.5 × 10^6 different peptide sequences were prepared as a OBOC library. Fluorescently labeled RGS4 was used to probe the library for peptides that bind RGS4 [5]. […] Since the majority of those hit peptides could bind tightly to the RGS without disrupting GAP activity, they were also tested in the flow cytometry protein interaction assay (FCPIA) (Figure 1), which measures the interaction between RGS4 and Gαo. In this method we used a Luminex flow cytometer to detect the binding of Alexa Fluor 532-labeled Gαo to biotinylated RGS4 on avidin beads in the presence of AMF (AlCl3, MgCl2, NaF and GDP) to put the Gα subunit into a transition state-like conformation. Peptides were tested at 50 μM except where limited by solubility (Table 1).
(§3) 5nd inhibited Gαo binding to a number of different RGS proteins (Figure 2). […] RGS19 and RGS7 are in the RZ and R7 families, respectively and show less inhibition by 5nd. Linear as well as bridged versions of peptide 5 were tested in the FCPIA since cyclization yields would most likely have been less then 100% in the synthesis of the library leaving some linear peptides present on each bead. […] This may be due to lack of structural rigidity necessary for the correct interaction of the peptide with the RGS protein or a role for chemical reactivity of the disulfide.
(§4) Figure 2 Characterization of hit 5. […]

RGS7 = target: T4, RGS7 (Homo sapiens, UniProt P49802); test: FCPIA, Gαo binding to RGS7; details: Figure 2
T4 construct: RGS7 RGS domain (aa: 305–453); made in house
T4 sequence (P49802 305-453): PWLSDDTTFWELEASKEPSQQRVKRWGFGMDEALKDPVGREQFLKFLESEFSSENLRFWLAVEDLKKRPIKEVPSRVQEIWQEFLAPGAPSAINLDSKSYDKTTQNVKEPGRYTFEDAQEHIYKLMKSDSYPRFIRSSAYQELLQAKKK
Experimental: as §2, §3, §4

T2 sequence (P49799 52-205 C71A/C95A/C148A/C183A/C197A/C204A): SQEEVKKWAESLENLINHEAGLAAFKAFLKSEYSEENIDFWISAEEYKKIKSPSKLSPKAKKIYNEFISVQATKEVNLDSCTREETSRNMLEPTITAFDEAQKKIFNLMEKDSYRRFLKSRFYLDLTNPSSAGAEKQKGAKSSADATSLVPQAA

For `CC(C)C[C@@H]1NC(=O)CNC(=O)[C@H](CCCCN)NC(=O)[C@@H](NC(=O)[C@H](Cc2c[nH]c3ccccc23)NC(=O)[C@@H](N)Cc2ccc(O)cc2)CSSC[C@@H](C(=O)N[C@@H](CCCCN)C(N)=O)NC1=O` [Peptide 5nd, Tyr-Trp-c [Cys-Lys-Gly-Leu-Cys]-Lys-NH2, S-S] (H-YWCKGLCK-NH2; disulfide 3-7), which IC50 (RGS4 C71A) is on record?
The IC50 was 45.7 µM.

What about the solubility [1] of the same molecule?
Its solubility is 463 µM (≈ 462 µg/mL).

And the IC50 (RGS4 A132C, -7C)?
Its IC50 is 389 µM.

What about the IC50 (RGS19; read-out: logIC50, RGS19 (converted)) of the same molecule?
Its IC50 is roughly 145 µM.

What about the IC50 (RGS19; dose response, read-out: IC50, Gαo binding to RGS19) of the same molecule?
The IC50 was 145 µM and ~145 µM.

And the IC50 (RGS7; read-out: logIC50, RGS7 (converted))?
The IC50 was roughly 174 µM.

What about the IC50 (RGS7; dose response, read-out: IC50, Gαo binding to RGS7) of the same molecule?
Its IC50 is 175 µM and ~175 µM.
